Data taken from patent US20050107423A1, “Quinolone antibacterial agents” (priority 2003, published 2005).
In brackets after ≈: the same amount, converted by molar mass.

What was measured:
Experiment in all cases: Antibacterial assay, microtitration MIC (Test A)
Type in all cases: cell-based
H. influenzae HI-3542 = conditions: strain HI-3542; for MIC: Haemophilus influenzae, HI3542, Gram Negative Bacteria, read-out: Minimum Inhibitory Concentrations H. influenzae HI-3542; for Minimum Inhibitory Concentrations H. influenzae HI-3542: Gram Negative Bacteria
Description: (§1) The compounds of the present invention were tested against an assortment of Gram-negative and Gram-positive organisms using standard microtitration techniques (Cohen et. al., Antimicrob., 1985;28:766; Heifetz, et. al., Antimicrob., 1974;6:124). The results of the evaluation are shown in Tables 1A and B, wherein “-” means no data.

E. coli EC-2549 = conditions: strain EC-2549; for MIC: Escherichia coli, EC2549, Gram Negative Bacteria, read-out: Minimum Inhibitory Concentrations E. coli EC-2549; for Minimum Inhibitory Concentrations E. coli EC-2549: Gram Negative Bacteria
Description: as §1

M. catarrhalis BC-3531 = conditions: strain BC-3531; for MIC: Moraxella catarrhalis, BC3531, Gram Negative Bacteria, read-out: Minimum Inhibitory Concentrations M. catarrhalis BC-3531; for Minimum Inhibitory Concentrations M. catarrhalis BC-3531: Gram Negative Bacteria
Description: as §1

S. pneumo SV-1 = conditions: Gram Positive Bacteria; strain SV-1; read-out: Minimum Inhibitory Concentrations S. pneumo SV-1
Description: as §1

E. faecalis MGH-2 = conditions: Enterococcus faecalis, MGH2, Gram Positive Bacteria; strain MGH-2; read-out: Minimum Inhibitory Concentrations E. faecalis MGH-2
Description: as §1

S pyogenes C203 = conditions: Gram Positive Bacteria; strain C203; read-out: Minimum Inhibitory Concentrations S pyogenes C203
Description: as §1

| Compound | MIC (H. influenzae HI-3542) | MIC (E. coli EC-2549) | MIC (M. catarrhalis BC-3531) | other results |
| --- | --- | --- | --- | --- |
| Cc1c(N2CCC(C(O)CO)C2)c(F)cc2c(=O)c(C(=O)O)cn(C3CC3)c12 (centres unmarked) [drawing 323] | 0.5 µg/mL (≈ 1.28 µM) | 4 µg/mL (≈ 10.2 µM) | 1 µg/mL (≈ 2.56 µM) |  |
| O=C(O)c1cn(C2CC2)c2c(OC(F)F)c(N3C[C@@H](CCO)[C@@H](CCO)C3)c(F)cc2c1=O [drawing 397] | 0.06 µg/mL (≈ 0.128 µM) | 1 µg/mL (≈ 2.13 µM) | 0.125 µg/mL (≈ 0.266 µM) |  |
| Nc1c(F)c(N2CCC(C(O)C(F)(F)F)C2)c(F)c2c1c(=O)c(C(=O)O)cn2C1CC1 (centres unmarked) [drawing 365] |  |  |  | MIC (S. pneumo SV-1): 0.125 µg/mL (≈ 0.279 µM); MIC (E. faecalis MGH-2): 0.06 µg/mL (≈ 0.134 µM); MIC (S pyogenes C203): 0.5 µg/mL (≈ 1.12 µM) |
| O=C(O)c1cn(C2CC2)c2c(Cl)c(N3CCC(C(O)C(F)F)C3)c(F)cc2c1=O (centres unmarked) [drawing 350] |  |  |  | MIC (S. pneumo SV-1): 0.125 µg/mL (≈ 0.29 µM); MIC (E. faecalis MGH-2): 0.125 µg/mL (≈ 0.29 µM); MIC (S pyogenes C203): 0.25 µg/mL (≈ 0.58 µM) |
| COc1c(N2CCC(C(O)C3(CO)CC3)C2)c(F)cc2c(=O)c(C(=O)O)cn(C3CC3)c12 (centres unmarked) [drawing 320] | 0.03 µg/mL (≈ 0.0672 µM) | 0.25 µg/mL (≈ 0.56 µM) |  |  |
| COC[C@@H]1CN(c2c(F)cc3c(=O)c(C(=O)O)cn(C4CC4)c3c2C)C[C@@H]1CO [drawing 389] | 0.008 µg/mL (≈ 0.0198 µM) | 0.06 µg/mL (≈ 0.148 µM) | 0.015 µg/mL (≈ 0.0371 µM) |  |
| Nc1nc(-n2cc(C(=O)O)c(=O)c3cc(F)c(N4C[C@@H]5CC[C@@H](O)[C@@H]5C4)c(Cl)c32)c(F)cc1F [drawing 444] | 0.03 µg/mL (≈ 0.0606 µM) | 0.25 µg/mL (≈ 0.505 µM) | 0.03 µg/mL (≈ 0.0606 µM) |  |
| O=C(O)c1cn(C2CC2)c2c(Cl)c(N3CCC(C(O)C(F)(F)F)C3)c(F)cc2c1=O (centres unmarked) | 0.004 µg/mL (≈ 0.00891 µM) | 0.06 µg/mL (≈ 0.134 µM) | 0.004 µg/mL (≈ 0.00891 µM) |  |
| COc1c(N2CCC(C(O)C3(O)CC3)C2)c(F)cc2c(=O)c(C(=O)O)cn(C3CC3)c12 (centres unmarked) [drawing 328] | 0.015 µg/mL (≈ 0.0347 µM) | 0.5 µg/mL (≈ 1.16 µM) | 0.125 µg/mL (≈ 0.289 µM) |  |
| COCC(O)C1CN(c2c(F)cc3c(=O)c(C(=O)O)cn(C4CC4)c3c2C)CC1(C)C (centres unmarked) [drawing 426] | 0.25 µg/mL (≈ 0.578 µM) | 1 µg/mL (≈ 2.31 µM) | 0.125 µg/mL (≈ 0.289 µM) |  |
| Cc1c(N2C[C@@H](CCO)[C@@H](CCO)C2)c(F)cc2c(=O)c(C(=O)O)cn(C3CC3)c12 [drawing 395] | 0.015 µg/mL (≈ 0.0358 µM) | 0.125 µg/mL (≈ 0.299 µM) | 0.06 µg/mL (≈ 0.143 µM) |  |
| COc1c(N2CCC(CO)(CO)C2)c(F)cc2c(=O)c(C(=O)O)cn(C3CC3)c12 [drawing 375] | 0.15 µg/mL (≈ 0.369 µM) | 0.5 µg/mL (≈ 1.23 µM) | 0.0125 µg/mL (≈ 0.0308 µM) |  |
| CCCOC[C@@H]1CN(c2c(F)cc3c(=O)c(C(=O)O)cn(C4CC4)c3c2C)C[C@@H]1CO [drawing 391] | 0.06 µg/mL (≈ 0.139 µM) | 0.25 µg/mL (≈ 0.578 µM) | 0.03 µg/mL (≈ 0.0694 µM) |  |
| O=C(O)c1cn(C2CC2)c2c(Cl)c(N3C[C@@H](CO)[C@@H](CO)C3)c(F)cc2c1=O [drawing 382] | 0.004 µg/mL (≈ 0.00974 µM) | 0.06 µg/mL (≈ 0.146 µM) | 0.03 µg/mL (≈ 0.073 µM) |  |
| Cc1c(N2CC(C)(CO)C(C)(CO)C2)c(F)cc2c(=O)c(C(=O)O)cn(C3CC3)c12 (centres unmarked) [drawing 438] |  |  |  | Minimum Inhibitory Concentrations H. influenzae HI-3542 (H. influenzae HI-3542): 0.125 µg/mL; Minimum Inhibitory Concentrations E. coli EC-2549 (E. coli EC-2549): 2 µg/mL; Minimum Inhibitory Concentrations M. catarrhalis BC-3531 (M. catarrhalis BC-3531): 0.25 µg/mL |
| COc1c(N2CCC(C(O)c3ccc(S(C)(=O)=O)o3)C2)c(F)cc2c(=O)c(C(=O)O)cn(C3CC3)c12 (centres unmarked) [drawing 319] | 0.06 µg/mL (≈ 0.115 µM) | 2 µg/mL (≈ 3.84 µM) | 0.125 µg/mL (≈ 0.24 µM) |  |
| Cc1c(N2CCC(C(C)O)C2)c(F)cc2c(=O)c(C(=O)O)cn(C3CC3)c12 (centres unmarked) [drawing 317] |  |  |  | Minimum Inhibitory Concentrations H. influenzae HI-3542 (H. influenzae HI-3542): 0.004 µg/mL; Minimum Inhibitory Concentrations E. coli EC-2549 (E. coli EC-2549): 0.06 µg/mL; Minimum Inhibitory Concentrations M. catarrhalis BC-3531 (M. catarrhalis BC-3531): 0.008 µg/mL |
| Cc1c(N2CC(C)(CO)C(C)(CO)C2)c(F)cc2c(=O)c(C(=O)O)cn(C3CC3)c12 (centres unmarked) [drawing 437] |  |  |  | Minimum Inhibitory Concentrations H. influenzae HI-3542 (H. influenzae HI-3542): 0.06 µg/mL; Minimum Inhibitory Concentrations E. coli EC-2549 (E. coli EC-2549): 0.5 µg/mL; Minimum Inhibitory Concentrations M. catarrhalis BC-3531 (M. catarrhalis BC-3531): 0.06 µg/mL |
| O=C(O)c1cn(C2CC2)c2c(OC(F)F)c(N3CC4CC(O)C(O)C4C3)c(F)cc2c1=O (centres unmarked) [drawing 448] | 0.03 µg/mL (≈ 0.066 µM) | 0.5 µg/mL (≈ 1.1 µM) | 0.06 µg/mL (≈ 0.132 µM) |  |
| Cc1c(N2CCC(C(O)C(C)(F)F)C2)c(F)cc2c(=O)c(C(=O)O)cn(C3CC3)c12 (centres unmarked) [drawing 336] | 0.03 µg/mL (≈ 0.0707 µM) | 0.125 µg/mL (≈ 0.295 µM) | 0.03 µg/mL (≈ 0.0707 µM) |  |
| COc1c(N2C[C@H](CO)[C@@H](CO)C2)c(F)cc2c(=O)c(C(=O)O)cn(C3CC3)c12 [drawing 385] | 0.008 µg/mL (≈ 0.0197 µM) | 0.25 µg/mL (≈ 0.615 µM) | 0.06 µg/mL (≈ 0.148 µM) |  |
| Cc1c(N2CC(CO)C3(CC3)C2)c(F)cc2c(=O)c(C(=O)O)cn(C3CC3)c12 (centres unmarked) [drawing 419] | 0.015 µg/mL (≈ 0.0388 µM) | 0.125 µg/mL (≈ 0.323 µM) | 0.008 µg/mL (≈ 0.0207 µM) |  |
| Nc1nc(-n2cc(C(=O)O)c(=O)c3cc(F)c(N4CCC(C(O)CO)C4)cc32)c(F)cc1F (centres unmarked) [drawing 358] |  |  |  | MIC (S. pneumo SV-1): 0.06 µg/mL (≈ 0.129 µM); MIC (E. faecalis MGH-2): 0.125 µg/mL (≈ 0.269 µM); MIC (S pyogenes C203): 0.125 µg/mL (≈ 0.269 µM) |
